Results as given in patent publication US9938322B2, “β-hairpin peptidomimetics” (priority 2013, dated 2018).
Where a SMILES comes first, the peptide text is derived from it. [ ]: non-standard residue; d: D form. Cha = N[C@@H](CC1CCCCC1)C(=O)O; Chg = N[C@H](C(=O)O)C1CCCCC1; Tle = CC(C)(C)[C@H](N)C(=O)O; dDab = NCC[C@@H](N)C(=O)O; Orn = NCCC[C@H](N)C(=O)O; Dab = NCC[C@H](N)C(=O)O; Nva = CCC[C@H](N)C(=O)O; Abu = CC[C@H](N)C(=O)O

Tested on: human red blood cells (hRBC)
Experiment: Hemolysis of human red blood cells
Type: cell-based
Settings: red cells of human, 1 h, 100
In short: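 Washed fresh human erythrocytes (20% v/v, about 0.9×10^9 cells/ml final) incubated with peptide at 100 μg/ml for 1 h at 37° C with shaking. Supernatant OD540 read; hemolysis expressed relative to 2.5% Triton X-100 (100%) and PBS with 0.001% acetic acid (0%).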

| Compound | Hemolysis at 100 μg/ml |
| --- | --- |
| CC[C@H](C)[C@@H]1NC(=O)[C@@H]2CCCN2C(=O)[C@H]2CCCN2C(=O)[C@H](CO)NC(=O)[C@H](C)NC(=O)[C@H](C(C)(C)C)NC(=O)[C@H](CCN)NC(=O)[C@H](Cc2c[nH]c3ccccc23)NC(=O)[C@H](CCN)NC(=O)[C@@H](CCN)NC(=O)[C@H](CCCN)NC(=O)[C@H](CCN)NC(=O)[C@H](Cc2ccc(O)cc2)NC(=O)[C@H](C)NC1=O [compound 125] (cyclo(IAY[Dab][Orn][dDab][Dab]W[Dab][Tle]AS[dP]P)) | 0% |
| CC[C@@H]1NC(=O)[C@H]([C@@H](C)CC)NC(=O)[C@@H]2CCCN2C(=O)[C@H]2CCCN2C(=O)[C@H](CO)NC(=O)[C@H](C)NC(=O)[C@H](C(C)(C)C)NC(=O)[C@H](CCN)NC(=O)[C@H](Cc2c[nH]c3ccccc23)NC(=O)[C@H](CCN)NC(=O)[C@@H](CCN)NC(=O)[C@H](CCCN)NC(=O)[C@H](CCN)NC(=O)[C@H](Cc2ccc(O)cc2)NC1=O [compound 126] (cyclo(I[Abu]Y[Dab][Orn][dDab][Dab]W[Dab][Tle]AS[dP]P)) | 0.5% |
| CC(C)C[C@@H]1NC(=O)[C@@H]2CCCN2C(=O)[C@H]2CCCN2C(=O)[C@H](CO)NC(=O)[C@H](C)NC(=O)[C@H](CC2CCCCC2)NC(=O)[C@H](CCN)NC(=O)[C@H](Cc2c[nH]c3ccccc23)NC(=O)[C@H](CCN)NC(=O)[C@@H](CCN)NC(=O)[C@H](CCCN)NC(=O)[C@H](CCN)NC(=O)[C@H](Cc2ccc(O)cc2)NC(=O)[C@H](C)NC1=O [compound 127] (cyclo(LAY[Dab][Orn][dDab][Dab]W[Dab][Cha]AS[dP]P)) | 1% |
| CC(C)C[C@@H]1NC(=O)[C@@H]2CCCN2C(=O)[C@H]2CCCN2C(=O)[C@H](CO)NC(=O)[C@H](C)NC(=O)[C@H](CC2CCCCC2)NC(=O)[C@H](CCN)NC(=O)[C@H](Cc2c[nH]c3ccccc23)NC(=O)[C@H](CCN)NC(=O)[C@@H](CCN)NC(=O)[C@H](CCCCN)NC(=O)[C@H](CCN)NC(=O)[C@H](Cc2ccc(O)cc2)NC(=O)[C@H](C)NC1=O [compound 128] (cyclo(LAY[Dab]K[dDab][Dab]W[Dab][Cha]AS[dP]P)) | 2% |
| CC(C)C[C@@H]1NC(=O)[C@@H]2CCCN2C(=O)[C@H]2CCCN2C(=O)[C@H](CO)NC(=O)[C@H](C)NC(=O)[C@H](C2CCCCC2)NC(=O)[C@H](CCN)NC(=O)[C@H](Cc2c[nH]c3ccccc23)NC(=O)[C@H](CCN)NC(=O)[C@@H](CCN)NC(=O)[C@H](CCCN)NC(=O)[C@H](CCN)NC(=O)[C@H](Cc2ccc(O)cc2)NC(=O)[C@H](C)NC1=O [compound 129] (cyclo(LAY[Dab][Orn][dDab][Dab]W[Dab][Chg]AS[dP]P)) | 1% |
| CC(C)C[C@@H]1NC(=O)[C@@H]2CCCN2C(=O)[C@H]2CCCN2C(=O)[C@H](CO)NC(=O)[C@H](CO)NC(=O)[C@H](C(C)(C)C)NC(=O)[C@H](CCN)NC(=O)[C@H](Cc2c[nH]c3ccccc23)NC(=O)[C@H](CCN)NC(=O)[C@@H](CCN)NC(=O)[C@H](CCCN)NC(=O)[C@H](CCN)NC(=O)[C@H](Cc2ccc(O)cc2)NC(=O)[C@H](C)NC1=O [compound 130] (cyclo(LAY[Dab][Orn][dDab][Dab]W[Dab][Tle]SS[dP]P)) | 0.2% |
| CC(C)C[C@@H]1NC(=O)[C@@H]2CCCN2C(=O)[C@H]2CCCN2C(=O)[C@H]([C@@H](C)O)NC(=O)[C@H](CO)NC(=O)[C@H](C(C)(C)C)NC(=O)[C@H](CCN)NC(=O)[C@H](Cc2c[nH]c3ccccc23)NC(=O)[C@H](CCN)NC(=O)[C@@H](CCN)NC(=O)[C@H](CCCN)NC(=O)[C@H](CCN)NC(=O)[C@H](Cc2ccc(O)cc2)NC(=O)[C@H](C)NC1=O [compound 131] (cyclo(LAY[Dab][Orn][dDab][Dab]W[Dab][Tle]ST[dP]P)) | 0.1% |
| CCC[C@@H]1NC(=O)[C@@H]2CCCN2C(=O)[C@H]2CCCN2C(=O)[C@H]([C@@H](C)O)NC(=O)[C@H](CO)NC(=O)[C@H](C2CCCCC2)NC(=O)[C@H](CCN)NC(=O)[C@H](Cc2c[nH]c3ccccc23)NC(=O)[C@H](CCN)NC(=O)[C@@H](CCN)NC(=O)[C@H](CCN)NC(=O)[C@H](CCN)NC(=O)[C@H](Cc2ccc(O)cc2)NC(=O)[C@H](C)NC1=O [compound 132] (cyclo([Nva]AY[Dab][Dab][dDab][Dab]W[Dab][Chg]ST[dP]P)) | 1.5% |
| CC[C@H](C)[C@@H]1NC(=O)[C@@H]2CCCN2C(=O)[C@H]2CCCN2C(=O)[C@H]([C@@H](C)O)NC(=O)[C@H]([C@@H](C)O)NC(=O)[C@H](C(C)(C)C)NC(=O)[C@H](CCN)NC(=O)[C@H](Cc2c[nH]c3ccccc23)NC(=O)[C@H](CCN)NC(=O)[C@@H](CCN)NC(=O)[C@H](CCN)NC(=O)[C@H](CCN)NC(=O)[C@H](Cc2ccc(O)cc2)NC(=O)[C@H](C)NC1=O [compound 133] (cyclo(IAY[Dab][Dab][dDab][Dab]W[Dab][Tle]TT[dP]P)) | 1% |
| CCC[C@@H]1NC(=O)[C@@H]2CCCN2C(=O)[C@H]2CCCN2C(=O)[C@H](CO)NC(=O)[C@H](C)NC(=O)[C@H](C2CCCCC2)NC(=O)[C@H](CCN)NC(=O)[C@H](Cc2c[nH]c3ccccc23)NC(=O)[C@H](CCN)NC(=O)[C@@H](CCN)NC(=O)[C@H](CCCN)NC(=O)[C@H](CCN)NC(=O)[C@H](CC2CCCCC2)NC(=O)[C@H](CO)NC1=O [compound 134] (cyclo([Nva]S[Cha][Dab][Orn][dDab][Dab]W[Dab][Chg]AS[dP]P)) | 8% |
| CC(C)C[C@@H]1NC(=O)[C@@H]2CCCN2C(=O)[C@H]2CCCN2C(=O)[C@H](CO)NC(=O)[C@H](C)NC(=O)[C@H](C(C)(C)C)NC(=O)[C@H](CCN)NC(=O)[C@H](Cc2c[nH]c3ccccc23)NC(=O)[C@H](CCN)NC(=O)[C@@H](CCN)NC(=O)[C@H](CCCN)NC(=O)[C@H](CCN)NC(=O)[C@H](CC2CCCCC2)NC(=O)[C@H](CO)NC1=O [compound 135] (cyclo(LS[Cha][Dab][Orn][dDab][Dab]W[Dab][Tle]AS[dP]P)) | 5% |
| CC[C@H](C)[C@@H]1NC(=O)[C@@H]2CCCN2C(=O)[C@H]2CCCN2C(=O)[C@H](CO)NC(=O)[C@H](C)NC(=O)[C@H](C2CCCCC2)NC(=O)[C@H](CCN)NC(=O)[C@H](Cc2c[nH]c3ccccc23)NC(=O)[C@H](CCN)NC(=O)[C@@H](CCN)NC(=O)[C@H](CCCN)NC(=O)[C@H](CCN)NC(=O)[C@H](C(C)(C)C)NC(=O)[C@H](CO)NC1=O [compound 136] (cyclo(IS[Tle][Dab][Orn][dDab][Dab]W[Dab][Chg]AS[dP]P)) | 5% |
| CC(C)C[C@@H]1NC(=O)[C@@H]2CCCN2C(=O)[C@H]2CCCN2C(=O)[C@H](CO)NC(=O)[C@H](C)NC(=O)[C@H](C2CCCCC2)NC(=O)[C@H](CCN)NC(=O)[C@H](Cc2c[nH]c3ccccc23)NC(=O)[C@H](CCN)NC(=O)[C@@H](CCN)NC(=O)[C@H](CCCN)NC(=O)[C@H](CCN)NC(=O)[C@H](C(C)(C)C)NC(=O)[C@H](CO)NC1=O [compound 137] (cyclo(LS[Tle][Dab][Orn][dDab][Dab]W[Dab][Chg]AS[dP]P)) | 4% |
| CCC[C@@H]1NC(=O)[C@@H]2CCCN2C(=O)[C@H]2CCCN2C(=O)[C@H](CO)NC(=O)[C@H](C)NC(=O)[C@H](C2CCCCC2)NC(=O)[C@H](CCN)NC(=O)[C@H](Cc2c[nH]c3ccccc23)NC(=O)[C@H](CCN)NC(=O)[C@@H](CCN)NC(=O)[C@H](CCCN)NC(=O)[C@H](CCN)NC(=O)[C@H](C(C)(C)C)NC(=O)[C@H](CO)NC1=O [compound 138] (cyclo([Nva]S[Tle][Dab][Orn][dDab][Dab]W[Dab][Chg]AS[dP]P)) | 1% |
| CCC[C@@H]1NC(=O)[C@@H]2CCCN2C(=O)[C@H]2CCCN2C(=O)[C@H](CO)NC(=O)[C@H](C)NC(=O)[C@H](CC2CCCCC2)NC(=O)[C@H](CCN)NC(=O)[C@H](Cc2c[nH]c3ccccc23)NC(=O)[C@H](CCN)NC(=O)[C@@H](CCN)NC(=O)[C@H](CCCCN)NC(=O)[C@H](CCN)NC(=O)[C@H](C(C)(C)C)NC(=O)[C@H](CO)NC1=O [compound 139] (cyclo([Nva]S[Tle][Dab]K[dDab][Dab]W[Dab][Cha]AS[dP]P)) | 5% |
| CC(C)C[C@@H]1NC(=O)[C@@H]2CCCN2C(=O)[C@H]2CCCN2C(=O)[C@H](CO)NC(=O)[C@H](C)NC(=O)[C@H](C(C)C)NC(=O)[C@H](CCN)NC(=O)[C@H](Cc2c[nH]c3ccccc23)NC(=O)[C@H](CCN)NC(=O)[C@@H](CCN)NC(=O)[C@H](CCCN)NC(=O)[C@H](CCN)NC(=O)[C@H](CC2CCCCC2)NC(=O)[C@H](CO)NC1=O [compound 140] (cyclo(LS[Cha][Dab][Orn][dDab][Dab]W[Dab]VAS[dP]P)) | 2% |
| CCC[C@@H]1NC(=O)[C@@H]2CCCN2C(=O)[C@H]2CCCN2C(=O)[C@H](CO)NC(=O)[C@H](C)NC(=O)[C@H](CC2CCCCC2)NC(=O)[C@H](CCN)NC(=O)[C@H](Cc2c[nH]c3ccccc23)NC(=O)[C@H](CCN)NC(=O)[C@@H](CCN)NC(=O)[C@H](CCCN)NC(=O)[C@H](CCN)NC(=O)[C@H](C(C)(C)C)NC(=O)[C@H](CO)NC1=O [compound 141] (cyclo([Nva]S[Tle][Dab][Orn][dDab][Dab]W[Dab][Cha]AS[dP]P)) | 8% |
| CC[C@H](C)[C@@H]1NC(=O)[C@@H]2CCCN2C(=O)[C@H]2CCCN2C(=O)[C@H](CO)NC(=O)[C@H](C)NC(=O)[C@H](C(C)(C)C)NC(=O)[C@H](CCN)NC(=O)[C@H](Cc2c[nH]c3ccccc23)NC(=O)[C@H](CCN)NC(=O)[C@H](CCN)NC(=O)[C@H](CCCN)NC(=O)[C@H](CCN)NC(=O)[C@H](CC2CCCCC2)NC(=O)[C@H](CO)NC1=O [compound 142] (cyclo(IS[Cha][Dab][Orn][Dab][Dab]W[Dab][Tle]AS[dP]P)) | 1% |
| CC(C)C[C@@H]1NC(=O)[C@@H]2CCCN2C(=O)[C@H]2CCCN2C(=O)[C@H](CO)NC(=O)[C@H](CO)NC(=O)[C@H](C(C)(C)C)NC(=O)[C@H](CCN)NC(=O)[C@H](Cc2c[nH]c3ccccc23)NC(=O)[C@H](CCN)NC(=O)[C@H](CCN)NC(=O)[C@H](CCCN)NC(=O)[C@H](CCN)NC(=O)[C@H](CC2CCCCC2)NC(=O)[C@H](CO)NC1=O [compound 143] (cyclo(LS[Cha][Dab][Orn][Dab][Dab]W[Dab][Tle]SS[dP]P)) | 0% |
